The source of these data is publication PMC4801481 (Biochemistry, 2015).

Data set [1] is described as follows: Solubility of Rev protein. Type of data set: physicochemical. To be noted: in the absence of RNA.
The conditions of data set [2]: in the absence of high salt; cited from earlier work.
Data set [3] concerns stem IA (HIV-1 RRE RNA hairpin). Description: NMR of Rev complexes with stem IA. Type of data set: binding. The settings on record: 288 K.
Data set [4] deals with stem IIB (HIV-1 RRE RNA hairpin). Nature of the data set: NMR of Rev complexes with stem IIB. To be noted: 288 K. Type of data set: binding.

Like-named read-outs stand apart in the source and are kept apart here.

For the substance “Rev protein: viral regulatory protein Rev of HIV-1”, the solubility result in data set [1] is given as “poor solubility of Rev in the absence of RNA”; in data set [2], “poorly soluble in the absence of high salt”.

With “RevDO: Truncated HIV-1 Rev (residues 9–64) with mutated dimerization (L12 → S, L60 → R) and higher-order oligomerization (L18 → Q, I55 → N) surfaces”, the “RNA imino resonances on RevDO binding” value is “almost identical to those obtained with the Rev–ARM peptide” in data set [3] (1D 1H NMR, pH 6.5, 0.1 M KCl) and “almost identical to those obtained with the Rev–ARM peptide” in data set [4] (1D 1H NMR, pH 6.5, 0.1 M KCl). The “number of backbone amide resonances” value in data set [3] (1H–15N HSQC, 15N-RevDO bound to IA, 0.4 mM, pH 6.5) is about 40 backbone amide resonances; in data set [4] (1H–15N HSQC, 15N-RevDO bound to IIB, 0.4 mM, pH 6.5) it was about 50 backbone amide resonances. Further, the “arginine Hε protons” value is given as “mostly absent with IA” in data set [3] (1H–15N HSQC, RevDO bound to IA) and “well resolved with IIB” in data set [4] (1H–15N HSQC, RevDO bound to IIB). Besides, the “1H–15N HSQC peak appearance” value in data set [3] (15N-RevDO bound to IA, 0.4 mM, pH 6.5) is recorded as “fewer, broader peaks”; in data set [4] (15N-RevDO bound to IIB, 0.4 mM, pH 6.5) it was “reasonably well-resolved peaks”. The “imino proton of Trp45” value in data set [4] (1H–15N HSQC, RevDO complexes, IIB versus IA) is given as “observed only with IIB”.
